Experiment: Human HepG2 cell viability assay in 384 well format
Type: toxicity, cell-based
Parameters: dose 125 nL, time 70.5 hour; cytotoxicity at 70.5 h: concentration not given beside the values
Conditions: HepG2 cells, read-out: Inhibition

In order of falling cytotoxicity at 70.5 h:
1. O=C1CC(c2ccncc2)C2(CCN(C(=O)c3cccs3)CC2)N1 (stereo unspecified)  43.8%
2. CCc1nnc(CN(C)c2nccc(N3CCCC(O)C3)n2)o1 (stereo unspecified)  27.2%
3. CN(C)C(=O)N1CC2(CCNCC2)c2cc(Cl)ccc21  24.1%
4. c1ccc(CN2CCc3ncnc(-c4ccncc4)c3CC2)nc1  22.4%
5. CN(C)C(=O)c1cnc2n1CCN(Cc1ccncc1)C2  19.9%
6. O=C(c1ccoc1)N1CCc2c(COCC3CC3)cncc2C1  14.9%
7. CC(C)O[C@H]1CN(C(=O)CCN2CCCCO2)C[C@@H]1O  11.2%
8. COc1ccc(CN2CC[C@@]3(O)CCCC[C@H]3C2)cc1C(=O)O  8.88%
9. CN(C)C(=O)CN1C(=O)C[C@@H]2[C@@H]1CCN2Cc1cccc(C#N)c1  6.8%
10. CN(C)C(=O)c1cnc2n1CCN(Cc1ccsc1)C2  2.92%
11. CN(C)[C@@H]1CCN(C(=O)c2ccsc2)[C@H]1Cc1cccnc1  2.91%
12. CCOCC1CN(CCN2CCCCC2)Cc2cnn(C)c21 (stereo unspecified)  2.16%
13. CO[C@H]1CCN(Cc2nccs2)C[C@@H]1Cc1ccccc1  -0.233%
14. CCOc1ccccc1CC(=O)N1C[C@H](C2CC2)[C@@H](N)C1  -0.519%
15. CCc1cc(NC(CCO)c2ccc(OC)cc2)n2nccc2n1 (stereo unspecified)  -0.73%
16. Cc1cc(CN2C[C@@H]3COC[C@]3(CNC(=O)N(C)C)C2)no1  -1.07%
17. O=C1CCCN1Cc1ncn2c1CN(Cc1cccs1)CCC2  -1.34%
18. Cc1cc(CC(C)Nc2ncc(C)c(N(C)C)n2)[nH]n1 (stereo unspecified)  -1.49%
19. Cn1cnc2c1C(COCC1CCOCC1)CN(C(=O)C1CC=CC1)C2 (stereo unspecified)  -2.11%
20. CSc1cccc(CN(C)C(=O)c2cccc(C3CCCNC3)c2)c1 (stereo unspecified)  -2.36%
21. CC1CCN(C(=O)[C@@H]2C[C@H]3OCC[C@H]3N(Cc3ccoc3)C2)CC1  -2.6%
22. CCCN1CCCn2nc(CNS(=O)(=O)c3cnn(CC)c3)cc2C1  -3.06%
23. COc1ccccc1CN1C(=O)O[C@@H]2CN(c3nc(C)cnc3C)C[C@@H]21  -3.32%
24. COCCNC(=O)[C@H]1C[C@H]2OCC[C@H]2N(Cc2ccoc2)C1  -3.39%
25. CC(C)Cc1noc(CN(C)c2ncccn2)n1  -3.77%
26. CCS(=O)(=O)N1Cc2ncn(C)c2C(COCC2CCOCC2)C1 (stereo unspecified)  -3.96%
27. O=C(NC1CCCC1)[C@H]1C[C@H]2OCC[C@H]2N(Cc2ccoc2)C1  -4.07%
28. Cc1ccccc1C(=O)N1C[C@@H]2CCN(c3cccnc3)C[C@@H]2C1  -4.88%
29. Cc1nc(CN2C[C@@H]3CN(C(=O)NC(C)C)C[C@@H]3C2=O)cs1  -5.1%
30. O=C(NC1CC1)N1CCn2c(Cn3cccn3)cnc2C1  -5.68%
31. CCc1cc(NCCc2cccnc2)n2nc(C)c(C)c2n1  -5.81%
32. CN(CCCC1CCCO1)C(=O)c1cccc(C#N)c1 (stereo unspecified)  -5.92%
33. Cc1noc([C@@H]2C[C@H]3OCC[C@H]3N(Cc3cc(C)c(C)o3)C2)n1  -6.09%
34. CCc1ncnc2c1CCN(C(=O)c1ccncc1F)CC2  -6.52%
35. Cc1cc(F)c(C(C(=O)O)N2CCN(Cc3ccccn3)CC2)cc1Cl (stereo unspecified)  -6.6%
36. CN(C)c1ncnc2c1CCN(C(=O)c1cccnc1)CC2  -6.66%
37. CCOCC1CN(C(=O)Cc2ccsc2)Cc2ccnn2C1 (stereo unspecified)  -6.83%
38. CN1CCCC2(CC1)CCN(C(=O)CCc1ccccc1F)CC2  -6.92%
39. CCc1ncc(CN2C[C@H]3CC[C@@H]2CN(C(=O)C2CCC2)C3)cn1  -6.96%
40. O=C(O)c1cc2c(nc1-c1ccncc1)CCN(Cc1ccoc1)CC2  -7.98%
41. Cn1cnc2c1C(COCC1CCOCC1)CN(C(=O)c1ccco1)C2 (stereo unspecified)  -8.23%
42. COCCC(=O)N1CCC2(COCc3cnc(N(C)C)nc32)C1 (stereo unspecified)  -8.65%
43. Cc1ccc(CN2CC[C@H]3C(=O)N(Cc4cccnc4)CCO[C@H]3C2)o1  -8.65%
44. Cc1ccc(N2C[C@H](C(=O)NCC3CC3)[C@@H]3CCO[C@@H]3C2)nn1  -9.32%
45. COc1cc(CNC(C)Cn2cccn2)cc2c1OCO2 (stereo unspecified)  -9.7%
46. O=C(N[C@H]1CC[C@H](O)CC1)c1ccc2nc(-c3ccc(F)cc3)cn2c1  -9.74%
47. C[C@@H]1CN(C2Cc3ccccc3C2)CC[C@@]1(O)C1CCOCC1  -10.1%
48. CN(C)C(=O)NC1COC2(CCN(S(=O)(=O)c3ccccc3)CC2)C1 (stereo unspecified)  -10.3%
49. Cc1nc[nH]c1CN1C[C@@H]2OCCN(c3ncccn3)[C@@H]2C1  -10.6%
50. Cc1noc(C)c1CN1Cc2cnn(C)c2C(COCC2CC2)C1 (stereo unspecified)  -10.8%
51. O=C(c1ccc(F)cc1)N1C[C@@H]2CCN(c3cccnc3)C[C@@H]2C1  -11.2%
52. O=C(C1CCCC1)N1C[C@@H]2CCN(c3cccnc3)C[C@@H]2C1  -11.4%
53. Cc1ccc(C(=O)N2C[C@@H]3CCN(c4cccnc4)C[C@@H]3C2)cn1  -12.4%
54. CN(C)C(=O)NC1COC2(CCN(Cc3ccco3)CC2)C1 (stereo unspecified)  -12.8%
55. Cc1ccc(N2C[C@H]3OCC[C@H]3[C@H](C(=O)NC3CCC3)C2)nn1  -13%
56. Cn1cnc2c1C(COCC1CCOCC1)CN(Cc1ccccn1)C2 (stereo unspecified)  -15.9%

Reference: ChEMBL document CHEMBL3507680, “University of Dundee, Gates Library screen for HepG2 cell viability”
